Measured values as given in ChEMBL document CHEMBL1151029, “Structure-activity relationships of sulfur-containing triazole antifungals” (1995).
Values after ≈ are worked out from the molar mass of the structure shown.

Tests used:
Assay type in all cases: functional
Aspergillus fumigatus = assay: In vitro antifungal activity against Aspergillus fumigatus MTU6001
Mus musculus = assay: Mean survival days evaluated in vivo for prophylactic efficiency against murine systemic aspergillosis at a dose of 100 mg/kg
Candida albicans = assay: In vitro antifungal activity against Candida albicans KB-8
[1] = Mean survival days evaluated in vivo for prophylactic efficiency against murine systemic candidiasis at a dose of 10 mg/kg
[2] = Mean survival days evaluated in vivo for prophylactic efficiency against murine systemic aspergillosis at a dose of 50 mg/kg

| Structure (SMILES) | MIC (Aspergillus fumigatus) [µg/mL] | Mean survival (Mus musculus) [days] | MIC (Candida albicans) [µg/mL] | Mean survival [1] [days] | Mean survival [2] [days] |
| --- | --- | --- | --- | --- | --- |
| OC(Cn1cncn1)(Cn1cncn1)c1ccc(F)cc1F [FLUCONAZOLE] | 400 (≈ 1310 µM) | 2.8 | 0.78 (≈ 2.55 µM) | 10 | – |
| CCCCCCCCS[C@H](C)[C@](O)(Cn1cncn1)c1ccc(F)cc1F | 0.39 (≈ 0.981 µM) | – | ≤ 0.013 | 8.6 | 7.2 |
| CCCCCCCCCCCS[C@H](C)[C@](O)(Cn1cncn1)c1ccc(F)cc1F | 25 (≈ 56.9 µM) | – | ≤ 0.013 | 5.8 | 1.6 |
| CCCCS(=O)(=O)[C@H](C)[C@](O)(Cn1cncn1)c1ccc(F)cc1F | 12.5 (≈ 33.5 µM) | – | 0.2 (≈ 0.536 µM) | 7.6 | 4.1 |
| C[C@H]([C@](O)(Cn1cncn1)c1ccc(F)cc1F)S(C)(=O)=O [GENACONAZOLE] | 12.5 (≈ 37.7 µM) | – | 0.2 (≈ 0.604 µM) | 10 | 10 |
| CCCCCCS(=O)(=O)[C@H](C)[C@](O)(Cn1cncn1)c1ccc(F)cc1F | 12.5 (≈ 31.1 µM) | – | 0.1 (≈ 0.249 µM) | 2.6 | 1.6 |
| C[C@@H](SCCCCCCCCO)[C@](O)(Cn1cncn1)c1ccc(F)cc1F | ≤ 0.2 | – | ≤ 0.013 | 4.3 | 3.5 |
| C[C@@H](SCCCCCCO)[C@](O)(Cn1cncn1)c1ccc(F)cc1F | 0.78 (≈ 2.02 µM) | – | ≤ 0.013 | 2.8 | 2.8 |
| CCCS(=O)(=O)[C@H](C)[C@](O)(Cn1cncn1)c1ccc(F)cc1F | 6.25 (≈ 17.4 µM) | – | 0.2 (≈ 0.556 µM) | 8.3 | 10 |
| CCCCCCCCS(=O)(=O)[C@H](C)[C@](O)(Cn1cncn1)c1ccc(F)cc1F | 3.13 (≈ 7.29 µM) | – | ≤ 0.013 | 1.3 | 1.6 |
| CCCCCCCCCCCS(=O)(=O)[C@H](C)[C@](O)(Cn1cncn1)c1ccc(F)cc1F | 3.13 (≈ 6.64 µM) | – | ≤ 0.013 | 1.1 | 1.6 |
| CCCS[C@H](C)[C@](O)(Cn1cncn1)c1ccc(F)cc1F | 12.5 (≈ 38.2 µM) | – | 0.1 (≈ 0.305 µM) | 4.4 | 1 |
| C[C@@H](SCCCCCCCO)[C@](O)(Cn1cncn1)c1ccc(F)cc1F | 0.78 (≈ 1.95 µM) | – | ≤ 0.013 | 10 | 9.7 |
| C[C@@H](SCCCCCO)[C@](O)(Cn1cncn1)c1ccc(F)cc1F | 0.78 (≈ 2.1 µM) | – | 0.025 (≈ 0.0673 µM) | 9.8 | 10 |
| CCCCS[C@H](C)[C@](O)(Cn1cncn1)c1ccc(F)cc1F | 0.78 (≈ 2.28 µM) | – | ≤ 0.013 | 9.9 | 2.5 |
| CCCCCCCS(=O)(=O)[C@H](C)[C@](O)(Cn1cncn1)c1ccc(F)cc1F | 6.25 (≈ 15 µM) | – | ≤ 0.013 | 0.9 | 1.1 |
| C[C@H]([C@](O)(Cn1cncn1)c1ccc(F)cc1F)S(=O)(=O)CCCCCCO | 100 (≈ 240 µM) | – | 0.39 (≈ 0.934 µM) | 1.4 | 3.1 |
| CCS[C@H](C)[C@](O)(Cn1cncn1)c1ccc(F)cc1F | 1.56 (≈ 4.98 µM) | – | 0.025 (≈ 0.0798 µM) | 10 | 9.8 |
| CCCCCCCCCS[C@H](C)[C@](O)(Cn1cncn1)c1ccc(F)cc1F | 3.13 (≈ 7.61 µM) | – | ≤ 0.013 | 5 | 1.8 |
| C[C@@H](SCCCCO)[C@](O)(Cn1cncn1)c1ccc(F)cc1F | 6.25 (≈ 17.5 µM) | – | 0.2 (≈ 0.56 µM) | 2.5 | 3.2 |
| C[C@H]([C@](O)(Cn1cncn1)c1ccc(F)cc1F)S(=O)(=O)CCCCCCCCO | 6.25 (≈ 14 µM) | – | 0.1 (≈ 0.224 µM) | 0.5 | 3 |
| CCCCCS(=O)(=O)[C@H](C)[C@](O)(Cn1cncn1)c1ccc(F)cc1F | 25 (≈ 64.5 µM) | – | 0.2 (≈ 0.516 µM) | 0.4 | 3.6 |
| CCCCCS[C@H](C)[C@](O)(Cn1cncn1)c1ccc(F)cc1F | 0.78 (≈ 2.19 µM) | – | ≤ 0.013 | 9.9 | 2.5 |
| CCCCCCCS[C@H](C)[C@](O)(Cn1cncn1)c1ccc(F)cc1F | ≤ 0.2 | – | ≤ 0.013 | 10 | 2.2 |
| CCCCCCCCCCS(=O)(=O)[C@H](C)[C@](O)(Cn1cncn1)c1ccc(F)cc1F | < 0.2 | – | ≤ 0.013 | 3.9 | 1.5 |
| CCCCCCCCCS(=O)(=O)[C@H](C)[C@](O)(Cn1cncn1)c1ccc(F)cc1F | 0.78 (≈ 1.76 µM) | – | ≤ 0.013 | 0.6 | 1 |
| CCCCCCCCCCS[C@H](C)[C@](O)(Cn1cncn1)c1ccc(F)cc1F | 0.78 (≈ 1.83 µM) | – | ≤ 0.013 | 9.1 | 8 |
| C[C@H]([C@](O)(Cn1cncn1)c1ccc(F)cc1F)S(=O)(=O)CCCCCCCO | 25 (≈ 57.9 µM) | – | 0.39 (≈ 0.904 µM) | 1 | 1.2 |
| CCCCCCS[C@H](C)[C@](O)(Cn1cncn1)c1ccc(F)cc1F | 0.39 (≈ 1.06 µM) | – | ≤ 0.013 | 9.2 | 6.8 |
